# According to ChEMBL document CHEMBL3098094, “Synthesis and biological evaluation of novel N-substituted 1H-dibenzo[a,c]carbazole derivatives of dehydroabietic acid as potential antimicrobial agents” (2014):
# How the values were obtained:
# Assay type in all cases: functional
# [1] = tested on: Staphylococcus aureus; experiment: Antimicrobial activity against Staphylococcus aureus CGMCC1.1361 after 24 hrs by twofold serial microdilution method; details: CGMCC1.1361, 24 h
# [2] = tested on: Candida tropicalis; experiment: Antimicrobial activity against Candida tropicalis CGMCC2.3967 after 48 hrs by twofold serial microdilution method; details: CGMCC2.3967, 48 h
# [3] = tested on: Pseudomonas fluorescens; experiment: Antimicrobial activity against Pseudomonas fluorescens CGMCC1.1828 after 24 hrs by twofold serial microdilution method; details: CGMCC1.1828, 24 h
# [4] = tested on: Escherichia coli; experiment: Antimicrobial activity against Escherichia coli CGMCC1.1571 after 24 hrs by twofold serial microdilution method; details: CGMCC1.1571, 24 h
# [5] = tested on: Candida albicans; experiment: Antimicrobial activity against Candida albicans CGMCC2.2086 after 48 hrs by twofold serial microdilution method; details: CGMCC2.2086, 48 h
# [6] = tested on: Bacillus subtilis; experiment: Antimicrobial activity against Bacillus subtilis CGMCC1.1162 after 24 hrs by twofold serial microdilution method; details: CGMCC1.1162, 24 h
# [7] = tested on: Aspergillus niger; experiment: Antimicrobial activity against Aspergillus niger CGMCC3.316 after 48 hrs by twofold serial microdilution method; details: CGMCC3.316, 48 h
Structure (SMILES),MIC [1] [µg/mL],MIC [2] [µg/mL],MIC [3] [µg/mL],MIC [4] [µg/mL],MIC [5] [µg/mL],MIC [6] [µg/mL],MIC [7] [µg/mL]
COC(=O)[C@]1(C)CCC[C@]2(C)c3ccc(C(C)C)cc3-c3c(c4ccccc4n3CCBr)[C@@H]12,62.5,> 100,> 100,> 100,> 100,31.2,> 100
COC(=O)[C@]1(C)CCC[C@]2(C)c3ccc(C(C)C)cc3-c3c(c4ccccc4n3CCNc3ccc(C)cc3)[C@@H]12,> 100,> 100,> 100,> 100,> 100,62.5,> 100
COC(=O)[C@]1(C)CCC[C@]2(C)c3ccc(C(C)C)cc3-c3c(c4ccccc4n3CCN(CCO)CCO)[C@@H]12,> 100,31.2,62.5,62.5,62.5,62.5,> 100
CCCCN(CCCC)CCn1c2c(c3ccccc31)[C@H]1[C@](C)(C(=O)OC)CCC[C@]1(C)c1ccc(C(C)C)cc1-2,15.6,31.2,15.6,31.2,31.2,15.6,62.5
COC(=O)[C@]1(C)CCC[C@]2(C)c3ccc(C(C)C)cc3-c3c(c4ccccc4n3CCNc3ccc(OC)cc3)[C@@H]12,62.5,> 100,> 100,> 100,> 100,> 100,> 100
COC(=O)[C@]1(C)CCC[C@]2(C)c3ccc(C(C)C)cc3-c3c(c4ccccc4n3CCN3CCCC3)[C@@H]12,62.5,> 100,> 100,> 100,> 100,31.2,> 100
COC(=O)[C@]1(C)CCC[C@]2(C)c3ccc(C(C)C)cc3-c3c(c4ccccc4n3CCN3CCN(C)CC3)[C@@H]12,1.9,7.8,7.8,15.6,7.8,3.9,7.8
NCC[C@H](O)C(=O)N[C@@H]1C[C@H](N)[C@@H](O[C@H]2O[C@H](CN)[C@@H](O)[C@H](O)[C@H]2O)[C@H](O)[C@H]1O[C@H]1O[C@H](CO)[C@@H](O)[C@H](N)[C@H]1O.O=S(=O)(O)O,0.9,,0.9,1.9,,0.9,
COC(=O)[C@]1(C)CCC[C@]2(C)c3ccc(C(C)C)cc3-c3c(c4ccccc4n3CCN3CCNCC3)[C@@H]12,15.6,31.2,15.6,15.6,31.2,7.8,62.5
CCCN(CCC)CCn1c2c(c3ccccc31)[C@H]1[C@](C)(C(=O)OC)CCC[C@]1(C)c1ccc(C(C)C)cc1-2,31.2,62.5,31.2,31.2,31.2,15.6,> 100
COC(=O)[C@]1(C)CCC[C@]2(C)c3ccc(C(C)C)cc3-c3c(c4ccccc4n3CCn3cnc4ccccc43)[C@@H]12,31.2,62.5,31.2,31.2,31.2,31.2,> 100
COC(=O)[C@]1(C)CCC[C@]2(C)c3ccc(C(C)C)cc3-c3c(c4ccccc4n3CCn3ccnc3)[C@@H]12,15.6,> 100,> 100,62.5,62.5,31.2,> 100
COC(=O)[C@]1(C)CCC[C@]2(C)c3ccc(C(C)C)cc3C(=O)C[C@@H]12,31.2,> 100,62.5,> 100,> 100,31.2,> 100
